Test results: article PMC9653751, “Chemical Composition and Antioxidant, Antimicrobial, and Anti-Inflammatory Properties of Origanum compactum Benth Essential Oils from Two Regions: In Vitro and In Vivo Evidence and In Silico Molecular Investigations” (Molecules, 2022)

Biological target: T1, Tyrosinase
T1 construct: gene PPO3
Assay: tyrosinase inhibition assay, details only by reference
Format: biochemical
Conditions: substrate and pH not given
Source text: tyrosinase inhibition assay, details only by reference on Tyrosinase

Quercetin: 39.62 ± 0.05 µg/mL
Compound: O=c1c(O)c(-c2ccc(O)c(O)c2)oc2cc(O)cc(O)c12 [Quercetin]
